{"source": "patent US6291470A", "about": "“Indole derivatives process for producing the same and medicinal uses of the same” (Toray Industries, Inc., priority 1992, dated 2001)", "key": {"immune system": {"system": "immune system", "settings": "in vitro and in vivo; Kokai No. 3-223288; cited from earlier work"}, "[1]": {"system": "Cerebral cortex nerve cells", "test": "Brain cell-protecting action, MTT method", "format": "cell-based, rat", "settings": "10 μM", "method": "The brain cell-protecting action was examined by MTT [3-(4,5-dimethylthiazol-2-yl)-2,5-diphenyltetrazolium bromide] method. MTT yields a dark blue formazan compound by mitochondria in living cells. This compound was dissolved in isopropanol and absorbance at 570 nm was measured, thereby measuring the number of living cells.\nCerebral cortex nerve cells of fetal rats of 17 days old were placed in wells of a 96-well plate at a population density of 1×10^5 cells/cm^2. Then 10 μM of a test compound was added and the cells were cultured in 200 μl of mixed medium of D-MEM/F.12 (1:1) for 3 days (37° C., 5%CO2). In a control group, the medium alone was added Then […] of MTT solution in PBS (6mg/ml) was added and the mixture was allowed to react for 3 hours (37° C., 5% CO2). After removing the culture medium, 100 μl of isopropanol was added and the absorbance was measured.\nThe ratio of the absorbances of the study group and the control group was employed as an index of brain cell-protecting action."}, "[2]": {"system": "delayed type hypersensitivity", "test": "Mouse Delayed Type Hypersensitivity Reaction Suppression Test-3 (administration into cerebral ventricles)", "format": "in vivo", "settings": "5×10^-8 mol/mouse into cerebral ventricles; BALB/c", "excerpt": "(§1) BALB/c mice (male, 7 weeks old) were used, and each group consisted of 4-5 mice. Spleen cells (1×10^7) obtained from a donor mouse (C57BL/6) was subcutaneously administered to sensitize the mice. On Day 7 from the sensitization, the spleen cells (5×10^6) of the donor were subcutaneously administered on the right footpad and spleen cells (5×10^6) obtained from a mouse of the same strain as the recipient mice were subcutaneously administered on the left footpad. Twenty four hours later, the thicknesses of the right and left footpads were measured with a dial thickness gage, and the difference in thicknesses of the right and left footpads before the induction of the reaction and 24 hours after the induction of the reaction was employed as the index of the degree of the reaction.\nThe test compound was dissolved in water and 5×10^-8 mol/mouse was administered into cerebral ventricles. In the control group, water alone was administered similarly. The dose was 5 μl/mouse in both the study groups and the control group."}, "[3]": {"system": "delayed type hypersensitivity", "test": "Mouse Delayed Type Hypersensitivity Reaction Suppression Test-1 (SRBC)", "format": "in vivo", "settings": "SRBC sensitization; subcutaneous, everyday from 3 days before sensitization, totally 8 days; BALB/c", "method": "BALB/c mice (male, 7 weeks old) were used. The mice were classified into groups depending on the body weight, each group consisting of 7-8 mice. Each of the mice was sensitized by subcutaneously administering […] of SRBC (8×10^8 in saline) on the heel of the left hing leg. On day 4 from the sensitization, 25 μl of SRBC (8×10^9 in saline) was subcutaneously administered on the right footpad so as to induce delayed type hypersensitivity. The difference in the thicknesses of the right footpad before the induction of reaction and 24 hours after the induction of the reaction was employed as an index of the degree of the reaction.\nThe test compound was dissolved in 10% DMSO-water and was subcutaneously administered everyday from 3 days before the sensitization to the day of induction of the reaction, totally 8 days. In the control group, 10% DMSO-water alone was administered in the same manner. The volume of administration was 5 ml/kg in both study groups and in the control group.\nThe % suppression of the delayed type hypersensitivity reaction was calculated according to the following equation: [formula]\nwherein A means the difference in the thickness of the right hind leg before and after the reaction in control group, and B means the difference in the thickness of the right hind leg before and after the reaction in the group to which the test compound was administered."}, "δ-opioid receptor [4]": {"target": "T1, δ-opioid receptor (Mus musculus, UniProt P32300)", "T1 construct": "from tissue; host or cells: vas deferens of male ddy mice", "T1 sequence (P32300 whole entry)": "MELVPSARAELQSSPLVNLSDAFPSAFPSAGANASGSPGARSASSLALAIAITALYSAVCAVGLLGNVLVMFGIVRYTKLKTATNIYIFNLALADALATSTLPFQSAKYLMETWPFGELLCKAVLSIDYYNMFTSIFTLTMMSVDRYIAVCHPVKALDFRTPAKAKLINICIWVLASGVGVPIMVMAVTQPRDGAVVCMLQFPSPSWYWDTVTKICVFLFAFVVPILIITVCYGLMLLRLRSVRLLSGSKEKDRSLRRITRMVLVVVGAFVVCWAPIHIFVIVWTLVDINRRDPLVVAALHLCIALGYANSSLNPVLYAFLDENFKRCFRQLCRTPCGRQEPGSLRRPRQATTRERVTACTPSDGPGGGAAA", "test": "δ-opioid antagonist activity against DPDPE in mouse vas deferens (MVD)", "settings": "against DPDPE; test compound 100 nM, 20 min; read-out: Ke", "outline": "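Vas deferens from male ddy mice in Krebs-Henseleit at 37 °C (5% CO2/95% O2), field-stimulated at 0.1 Hz, 5.0 ms, isometric contraction recorded. IC50 dose ratio, Ke and Schild pA2 derived.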"}, "δ-opioid receptor [5]": {"target": "T1, δ-opioid receptor", "test": "Change in δ-antagonist activity against DPDPE with time in mouse vas deferens (MVD)", "settings": "for Ratio of IC50 Values / Kb: 173 and NTI at 20 nM, 174 and 5'-NTII at 100 nM; for Kb: read-out: Ke", "method": "In this experiment, ddy male mice were used. In a Magnus' tube which is filled with Krebes-Henseleit solution (NaCl […]; KCl 4.7 mM; CaCl2 2.5 mM; KH2 PO4 1.1 mM; NaHCO3 25 mM; glucose 11 mM) kept at 37° C., and into which an atmosphere consisting of 5% carbon dioxide and 95% oxygen was flown, vas deferens taken from the animals was suspended. Electric stimulation was applied through ring-shaped platinum electrodes mounted on the upper and lower portions of the tube at a frequency of 0.1 Hz and 5.0 mS duration. The contraction of the tissue was recorded on polygraph using isometric transducer.\nThen 100 nM of the test compound was added. Twenty minutes later, DPDPE was begun to be added cumulatively. The ratio of IC50 values in the presence and absence of the test compound, Ke value (the molar concentration of the test compound necessary for translating the dose-effect curve to the curve of twice dose) and pA2 value were determined. The pA2 value was determined by the method of Shild et al (Shild, H. O., Br. J. Pharmac. Chamotehr., 4, 277 (1949)). That is, the logarithm of the test compound (log[test compound]) was plotted along the abscissa and the logarithm of the value obtained by subtracting 1 from the ratio of IC50 values was plotted in the presence and absence of the test compound [log(dose ratio-1)] along the ordinate. The pA2 value was determined from the value on the abscissa when the value on the ordinate of the obtained line is 0.\nUsing MVD, the antagonist activities of compounds 173 and 174 against DPDPE were determined. The ratio of IC50 values, Ke values and pA2 values at 15 minutes, 30 minutes and 1 hour from the addition of the test compounds were calculated. Since the concentrations of the test compounds are different, the reciprocals of Ke values were plotted in FIGS. 1 and 2."}, "[6]": {"system": "delayed type hypersensitivity", "test": "Delayed type hypersensitivity suppression test using mice from which adrenal glands have been removed", "format": "in vivo, mouse", "settings": "for % Suppression: subcutaneous, totally 8 days", "excerpt": "The mechanism of immunosuppression of the compound of the present invention was examined using delayed type hypersensitivity suppression test using mice from which adrenal glands have been removed.\nas §1\nThe adrenectomy was performed by cutting the back of each recipient mouse under anesthesia with ether before the sensitization and removing the adrenal gland. Sham operation was performed by cutting the back of each recipient mouse but not removing the adrenal gland.\nThe test compound was dissolved in 10% DMSO-water and was subcutaneously administered everyday from the day of sensitization to the day of induction of the reaction, totally 8 days. In the control group, 10% DMSO-water alone was administered in the same manner. The volume of administration was 10 ml/kg in both study groups and in the control groups."}}}
{"smiles": "Oc1ccc2c3c1O[C@H]1c4[nH]c5ccccc5c4C[C@@]4(O)[C@@H](C2)N(CC2CC2)CC[C@]314", "note": "[NTI, reference compound]", "values": [{"measurement": "immunosuppressive action (in words)", "setting": "immune system", "result": "exhibits immunosuppressive action in vitro and in vivo"}, {"measurement": "brain cell-protecting action (in words)", "setting": "[1]; MTT", "result": "has brain cell-protecting action"}, {"measurement": "Ratio of Absorbances", "setting": "[1]; study group / control group, 570 nm, 3 days culture", "result": 4.21}, {"measurement": "% Suppression", "setting": "[2]", "result": 40, "unit": "%"}, {"measurement": "% Suppression", "setting": "[3]", "result": "did not suppress"}, {"measurement": "Kb", "setting": "δ-opioid receptor [4]", "result": 0.21, "unit": "nM"}, {"measurement": "Ratio of IC50 Values", "setting": "δ-opioid receptor [5]; 15 min", "result": 96.3}, {"measurement": "Kb", "setting": "δ-opioid receptor [5]; 15 min", "result": 0.21, "unit": "nM"}, {"measurement": "change of antagonist activity with time (in words)", "setting": "δ-opioid receptor [5]; 15 min to 1 hour", "result": "did not change"}, {"measurement": "Ratio of IC50 Values", "setting": "δ-opioid receptor [5]; 30 min", "result": 95.6}, {"measurement": "Kb", "setting": "δ-opioid receptor [5]; 30 min", "result": 0.21, "unit": "nM"}, {"measurement": "Ratio of IC50 Values", "setting": "δ-opioid receptor [5]; 60 min", "result": 83.7}, {"measurement": "Kb", "setting": "δ-opioid receptor [5]; 60 min", "result": 0.24, "unit": "nM"}, {"measurement": "suppressive effect after removing adrenal gland (in words)", "setting": "[6]; Adrenectomy vs sham", "result": "disappeared by removing adrenal gland"}, {"measurement": "% Suppression", "setting": "[6]; Adrenectomy", "result": 0, "unit": "%"}, {"measurement": "% Suppression", "setting": "[6]; Sham Operation", "result": 50, "unit": "%"}]}
